Data as given in PMC9851200, “Multiparameter phenotypic screening for endogenous TFEB and TFE3 translocation identifies novel chemical series modulating lysosome function” (Autophagy, 2022).
Like-named read-outs stand apart in the source and are kept apart here.

What was measured:
TGFBR1 [1] = biological target: T1, TGFBR1 (Homo sapiens, UniProt P36897); experiment: TGFBR1 binding KD (Table S3)
T1 sequence (P36897 34-503): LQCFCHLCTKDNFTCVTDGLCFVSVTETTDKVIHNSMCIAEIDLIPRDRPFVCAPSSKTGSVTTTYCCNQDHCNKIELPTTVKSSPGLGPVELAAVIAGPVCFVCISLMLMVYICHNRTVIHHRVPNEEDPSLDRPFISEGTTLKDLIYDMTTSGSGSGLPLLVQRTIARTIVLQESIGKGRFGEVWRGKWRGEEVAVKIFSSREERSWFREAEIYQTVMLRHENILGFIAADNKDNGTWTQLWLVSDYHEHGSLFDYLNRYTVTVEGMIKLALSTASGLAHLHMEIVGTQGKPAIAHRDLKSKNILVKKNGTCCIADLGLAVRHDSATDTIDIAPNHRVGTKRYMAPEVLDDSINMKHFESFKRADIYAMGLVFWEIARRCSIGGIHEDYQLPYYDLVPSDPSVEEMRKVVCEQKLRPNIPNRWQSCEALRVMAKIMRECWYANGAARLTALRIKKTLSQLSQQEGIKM
Text: Supplement KAUP_A_2095834_SM5251.zip/Supplementary Tables R7.xlsx, sheet "Table S3 - Analogues"

CIT = CIT (Homo sapiens, UniProt O14578); experiment: KINOMEscan CIT; assay type: binding; details: NEW KINOMEscan
Chain of CIT (O14578 whole entry): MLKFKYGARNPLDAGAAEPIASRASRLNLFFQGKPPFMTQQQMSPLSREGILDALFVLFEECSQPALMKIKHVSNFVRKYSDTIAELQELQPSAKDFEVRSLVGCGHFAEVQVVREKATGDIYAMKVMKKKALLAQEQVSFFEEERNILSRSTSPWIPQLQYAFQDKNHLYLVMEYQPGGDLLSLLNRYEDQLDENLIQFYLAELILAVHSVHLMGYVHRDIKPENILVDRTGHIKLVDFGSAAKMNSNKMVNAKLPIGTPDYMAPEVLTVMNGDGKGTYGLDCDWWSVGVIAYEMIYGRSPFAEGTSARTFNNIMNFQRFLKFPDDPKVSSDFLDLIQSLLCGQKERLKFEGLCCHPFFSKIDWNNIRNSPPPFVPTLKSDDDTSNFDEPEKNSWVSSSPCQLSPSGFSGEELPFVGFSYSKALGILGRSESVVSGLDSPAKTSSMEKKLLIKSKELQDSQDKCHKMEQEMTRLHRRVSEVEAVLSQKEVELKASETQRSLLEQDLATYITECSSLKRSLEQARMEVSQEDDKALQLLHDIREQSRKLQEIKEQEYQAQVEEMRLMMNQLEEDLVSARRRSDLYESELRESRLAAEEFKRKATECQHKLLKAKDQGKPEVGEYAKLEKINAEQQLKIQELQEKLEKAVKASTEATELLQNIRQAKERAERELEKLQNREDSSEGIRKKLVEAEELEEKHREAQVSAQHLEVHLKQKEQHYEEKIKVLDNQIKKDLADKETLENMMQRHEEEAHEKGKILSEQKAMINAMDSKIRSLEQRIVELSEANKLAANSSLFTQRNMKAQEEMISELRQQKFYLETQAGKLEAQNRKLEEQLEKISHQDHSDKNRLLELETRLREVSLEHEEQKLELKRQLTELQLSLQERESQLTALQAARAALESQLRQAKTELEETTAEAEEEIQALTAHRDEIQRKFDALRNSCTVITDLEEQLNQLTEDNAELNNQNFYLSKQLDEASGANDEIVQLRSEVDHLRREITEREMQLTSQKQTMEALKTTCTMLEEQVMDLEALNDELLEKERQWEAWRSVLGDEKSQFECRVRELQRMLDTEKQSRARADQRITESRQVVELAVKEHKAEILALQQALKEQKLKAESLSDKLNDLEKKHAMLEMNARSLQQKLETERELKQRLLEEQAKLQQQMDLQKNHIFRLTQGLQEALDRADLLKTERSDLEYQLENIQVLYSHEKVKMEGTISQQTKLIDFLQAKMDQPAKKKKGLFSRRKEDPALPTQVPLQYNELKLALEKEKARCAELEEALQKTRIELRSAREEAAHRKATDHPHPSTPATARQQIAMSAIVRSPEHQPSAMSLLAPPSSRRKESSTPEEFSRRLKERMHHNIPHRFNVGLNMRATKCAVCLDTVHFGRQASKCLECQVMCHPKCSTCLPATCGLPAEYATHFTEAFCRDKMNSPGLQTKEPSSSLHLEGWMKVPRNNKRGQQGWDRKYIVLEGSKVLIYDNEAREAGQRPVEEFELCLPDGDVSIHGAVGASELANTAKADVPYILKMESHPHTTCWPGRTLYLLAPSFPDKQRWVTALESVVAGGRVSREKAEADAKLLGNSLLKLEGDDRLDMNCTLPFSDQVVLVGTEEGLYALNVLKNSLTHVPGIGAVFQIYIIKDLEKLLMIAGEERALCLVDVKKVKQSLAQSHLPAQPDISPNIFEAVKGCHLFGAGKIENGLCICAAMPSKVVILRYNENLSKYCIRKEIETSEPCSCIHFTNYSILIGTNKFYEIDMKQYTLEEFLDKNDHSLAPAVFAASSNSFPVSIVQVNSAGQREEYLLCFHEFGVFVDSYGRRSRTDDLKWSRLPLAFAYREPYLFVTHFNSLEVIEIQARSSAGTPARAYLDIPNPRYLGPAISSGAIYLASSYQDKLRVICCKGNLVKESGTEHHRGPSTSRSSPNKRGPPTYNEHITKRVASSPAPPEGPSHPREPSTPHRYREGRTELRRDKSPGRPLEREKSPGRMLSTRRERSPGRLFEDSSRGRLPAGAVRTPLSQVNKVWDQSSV

JAK1(JH2) = biological target: T2, JAK1(JH2) (Homo sapiens, UniProt P23458); experiment: KINOMEscan JAK1(JH2); assay type: binding; details: NEW KINOMEscan
T2 construct: JAK1(JH2)
T2 sequence (P23458 583-855 limits assumed): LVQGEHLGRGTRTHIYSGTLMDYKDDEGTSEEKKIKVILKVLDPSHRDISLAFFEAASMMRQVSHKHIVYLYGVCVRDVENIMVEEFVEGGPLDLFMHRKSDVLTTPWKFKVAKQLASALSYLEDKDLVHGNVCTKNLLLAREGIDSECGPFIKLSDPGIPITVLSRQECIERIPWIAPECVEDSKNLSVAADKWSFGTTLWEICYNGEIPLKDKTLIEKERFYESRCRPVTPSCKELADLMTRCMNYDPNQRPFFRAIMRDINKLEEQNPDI

ACVR1B = biological target: T3, ACVR1B (Homo sapiens, UniProt P36896); experiment: KINOMEscan ACVR1B; assay type: binding
T3 sequence (P36896 24-505): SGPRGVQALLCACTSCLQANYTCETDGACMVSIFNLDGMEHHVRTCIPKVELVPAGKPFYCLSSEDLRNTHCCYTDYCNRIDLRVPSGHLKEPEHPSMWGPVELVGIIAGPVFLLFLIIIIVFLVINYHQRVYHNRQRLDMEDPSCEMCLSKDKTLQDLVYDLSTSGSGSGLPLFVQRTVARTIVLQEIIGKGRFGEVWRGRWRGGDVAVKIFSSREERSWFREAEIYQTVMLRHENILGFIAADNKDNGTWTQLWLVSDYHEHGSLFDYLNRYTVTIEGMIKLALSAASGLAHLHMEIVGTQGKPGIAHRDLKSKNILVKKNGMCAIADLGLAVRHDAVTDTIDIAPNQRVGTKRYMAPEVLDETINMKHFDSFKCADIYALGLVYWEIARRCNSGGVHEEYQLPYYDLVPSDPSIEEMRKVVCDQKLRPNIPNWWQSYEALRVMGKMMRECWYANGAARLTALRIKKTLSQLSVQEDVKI

[2] = biological target: kinases (KINOMEscan panel) (Homo sapiens, UniProt P48729); assay type: binding; details: CSNK1A1; NEW KINOMEscan
Chain of kinases (KINOMEscan panel) (Homo sapiens, UniProt P48729) (P48729 whole entry): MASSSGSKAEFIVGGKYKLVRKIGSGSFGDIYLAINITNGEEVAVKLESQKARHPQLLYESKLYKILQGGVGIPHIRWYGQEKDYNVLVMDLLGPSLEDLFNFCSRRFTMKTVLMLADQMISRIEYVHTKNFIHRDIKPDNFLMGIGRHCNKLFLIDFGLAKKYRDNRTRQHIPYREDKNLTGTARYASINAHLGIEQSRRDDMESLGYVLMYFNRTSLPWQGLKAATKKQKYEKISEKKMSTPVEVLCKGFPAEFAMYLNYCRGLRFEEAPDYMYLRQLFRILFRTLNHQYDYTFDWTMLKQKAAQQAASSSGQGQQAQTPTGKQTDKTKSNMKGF

[3] = biological target: kinases (KINOMEscan panel) (Homo sapiens, UniProt Q9HC98); assay type: binding; details: kinase NEK6; NEW KINOMEscan
Chain of kinases (KINOMEscan panel) (Homo sapiens, UniProt Q9HC98) (Q9HC98 whole entry): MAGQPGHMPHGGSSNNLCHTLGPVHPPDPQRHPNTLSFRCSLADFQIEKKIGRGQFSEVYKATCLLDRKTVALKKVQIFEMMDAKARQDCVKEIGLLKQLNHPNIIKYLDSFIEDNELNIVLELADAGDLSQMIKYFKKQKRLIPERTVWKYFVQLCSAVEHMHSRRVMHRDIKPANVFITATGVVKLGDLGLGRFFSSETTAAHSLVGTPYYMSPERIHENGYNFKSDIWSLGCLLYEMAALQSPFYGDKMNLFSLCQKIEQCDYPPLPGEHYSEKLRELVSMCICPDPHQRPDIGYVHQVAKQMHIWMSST

[4] = biological target: T4, kinases (KINOMEscan panel) (Homo sapiens, UniProt P54753); assay type: binding; details: kinase EPHB3; NEW KINOMEscan
T4 sequence (P54753 34-998): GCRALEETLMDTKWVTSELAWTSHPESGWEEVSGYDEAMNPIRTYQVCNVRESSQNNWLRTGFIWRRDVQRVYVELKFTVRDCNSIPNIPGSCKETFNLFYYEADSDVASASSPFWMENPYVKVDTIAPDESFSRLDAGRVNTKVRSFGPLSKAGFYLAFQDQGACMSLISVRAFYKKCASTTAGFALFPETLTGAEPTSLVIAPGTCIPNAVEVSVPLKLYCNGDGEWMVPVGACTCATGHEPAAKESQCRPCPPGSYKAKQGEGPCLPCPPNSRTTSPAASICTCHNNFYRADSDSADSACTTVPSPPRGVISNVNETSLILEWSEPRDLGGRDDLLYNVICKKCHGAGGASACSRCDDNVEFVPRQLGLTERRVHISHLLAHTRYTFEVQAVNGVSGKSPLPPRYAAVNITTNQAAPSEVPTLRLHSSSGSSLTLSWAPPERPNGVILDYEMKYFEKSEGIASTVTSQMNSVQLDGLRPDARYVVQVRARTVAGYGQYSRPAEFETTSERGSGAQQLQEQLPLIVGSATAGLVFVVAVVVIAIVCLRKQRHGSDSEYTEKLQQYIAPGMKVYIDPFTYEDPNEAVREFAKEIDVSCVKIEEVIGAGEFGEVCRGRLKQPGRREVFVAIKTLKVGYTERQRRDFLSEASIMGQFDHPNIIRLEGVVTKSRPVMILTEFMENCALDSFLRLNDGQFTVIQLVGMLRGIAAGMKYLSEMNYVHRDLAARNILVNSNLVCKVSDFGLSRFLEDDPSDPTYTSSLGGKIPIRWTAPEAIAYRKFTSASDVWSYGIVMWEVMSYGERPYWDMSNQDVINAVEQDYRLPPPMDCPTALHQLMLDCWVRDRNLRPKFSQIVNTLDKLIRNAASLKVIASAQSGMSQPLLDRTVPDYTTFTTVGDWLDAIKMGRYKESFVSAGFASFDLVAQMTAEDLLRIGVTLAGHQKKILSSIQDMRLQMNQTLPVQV

[5] = biological target: kinases (KINOMEscan panel) (Homo sapiens, UniProt P36894); assay type: binding; details: kinase BMPR1A; NEW KINOMEscan
Chain of kinases (KINOMEscan panel) (Homo sapiens, UniProt P36894) (P36894 24-532): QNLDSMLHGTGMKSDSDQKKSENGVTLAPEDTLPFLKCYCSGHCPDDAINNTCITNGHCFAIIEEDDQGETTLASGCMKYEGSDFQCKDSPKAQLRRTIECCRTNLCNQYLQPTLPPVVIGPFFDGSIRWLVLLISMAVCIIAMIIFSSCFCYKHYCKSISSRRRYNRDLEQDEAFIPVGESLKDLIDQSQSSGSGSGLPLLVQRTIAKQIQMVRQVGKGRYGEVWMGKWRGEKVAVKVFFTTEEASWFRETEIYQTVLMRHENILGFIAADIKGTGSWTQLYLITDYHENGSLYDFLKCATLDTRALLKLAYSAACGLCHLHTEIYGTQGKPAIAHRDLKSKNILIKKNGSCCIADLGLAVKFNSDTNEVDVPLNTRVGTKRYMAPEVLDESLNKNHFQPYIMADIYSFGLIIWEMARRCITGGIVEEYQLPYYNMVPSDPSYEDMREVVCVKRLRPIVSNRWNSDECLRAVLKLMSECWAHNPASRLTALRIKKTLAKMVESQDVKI

[6] = biological target: kinases (KINOMEscan panel) (Homo sapiens, UniProt P10721, V559D); assay type: binding; details: kinase KIT(V559D); NEW KINOMEscan
Chain of kinases (KINOMEscan panel) (Homo sapiens, UniProt P10721, V559D) (P10721 26-976 V559D): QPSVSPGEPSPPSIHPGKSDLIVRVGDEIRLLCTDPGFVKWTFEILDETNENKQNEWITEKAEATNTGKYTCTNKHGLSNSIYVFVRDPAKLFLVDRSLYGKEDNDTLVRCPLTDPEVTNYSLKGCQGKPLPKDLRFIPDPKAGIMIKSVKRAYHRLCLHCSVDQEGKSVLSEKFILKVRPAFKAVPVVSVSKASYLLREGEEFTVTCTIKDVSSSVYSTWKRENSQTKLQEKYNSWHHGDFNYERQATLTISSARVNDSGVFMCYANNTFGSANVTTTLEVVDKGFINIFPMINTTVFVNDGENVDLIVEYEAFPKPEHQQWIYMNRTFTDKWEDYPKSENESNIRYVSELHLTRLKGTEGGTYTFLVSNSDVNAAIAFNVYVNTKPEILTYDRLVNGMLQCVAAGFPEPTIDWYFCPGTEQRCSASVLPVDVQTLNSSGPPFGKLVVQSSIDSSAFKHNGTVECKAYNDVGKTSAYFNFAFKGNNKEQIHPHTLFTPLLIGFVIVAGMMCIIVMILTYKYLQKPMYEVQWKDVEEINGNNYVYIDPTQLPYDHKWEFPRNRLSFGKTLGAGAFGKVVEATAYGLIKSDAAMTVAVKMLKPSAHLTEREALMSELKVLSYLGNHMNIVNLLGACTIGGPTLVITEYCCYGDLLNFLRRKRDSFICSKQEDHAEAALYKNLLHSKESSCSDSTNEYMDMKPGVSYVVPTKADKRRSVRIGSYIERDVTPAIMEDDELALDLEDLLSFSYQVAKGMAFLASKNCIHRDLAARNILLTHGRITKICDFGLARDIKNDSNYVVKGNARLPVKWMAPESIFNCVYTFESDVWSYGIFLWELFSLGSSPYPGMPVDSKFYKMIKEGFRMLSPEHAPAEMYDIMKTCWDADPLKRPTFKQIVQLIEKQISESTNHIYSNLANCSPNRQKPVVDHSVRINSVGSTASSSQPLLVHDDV

[7] = biological target: kinases (KINOMEscan panel) (Homo sapiens, UniProt P00519, Q252H); assay type: binding; details: NEW KINOMEscan; for KINOMEscan ABL1(Q252H)-nonphosphorylated: kinase ABL1(Q252H)-nonphosphorylated; for KINOMEscan ABL1(Q252H)-phosphorylated: kinase ABL1(Q252H)-phosphorylated
TGFBR1 [8] = biological target: T1, TGFBR1; experiment: KINOMEscan TGFBR1; assay type: binding
MTOR = MTOR (Homo sapiens, UniProt P42345); experiment: KINOMEscan MTOR; assay type: binding; details: NEW KINOMEscan

Compound | Kd (TGFBR1 [1]) [µM] | KINOMEscan CIT (CIT) | KINOMEscan JAK1(JH2domain-pseudokinase) (JAK1(JH2)) | KINOMEscan ACVR1B (ACVR1B) | KINOMEscan CSNK1A1 [2] | KINOMEscan NEK6 [3] | KINOMEscan EPHB3 [4] | KINOMEscan BMPR1A [5] | KINOMEscan KIT(V559D) [6] | KINOMEscan ABL1(Q252H)-nonphosphorylated [7] | KINOMEscan ABL1(Q252H)-phosphorylated [7] | KINOMEscan TGFBR1 (TGFBR1 [8]) | KINOMEscan MTOR (MTOR) | KINOMEscan ACVR1B (ACVR1B; ACVR1B, NEW KINOMEscan) | KINOMEscan TGFBR1 (TGFBR1 [8]; TGFBR1, NEW KINOMEscan)
Cc1cccc(-c2nc(Nc3ccc4ncsc4c3)c3ccccc3n2)n1 [NK140] | 5 | – | – | – | – | – | – | – | – | – | – | – | – | – | –
Cc1cccc(-c2nc(Nc3ccc4nn(C)cc4c3)c3ccccc3n2)n1 [NK167] | – | 3 | 36 | 20 | 7 | 0 | 6 | 13 | 15 | 0 | 0 | 21 | 0 | – | –
Cc1cccc(-c2nc(Nc3ccncc3)c3ccccc3n2)n1 [NK215] | 0.0095 | – | – | – | – | – | – | – | – | – | – | – | – | – | –
Cc1cccc(-c2nc(N(C)c3ccc4ncsc4c3)c3ccccc3n2)n1 [NK-161] | – | 0 | 41 | – | 10 | 6 | 6 | 4 | 7 | 0 | 0 | – | 4 | 28 | 12
